Test results reported in PMC3624020 (Nature communications, 2011).

Legend:
[1] = system: PGRMC1 in A549 lung cancer cells; settings: ref [33], [37]; cited from earlier work
[2] = system: sigma-2 receptors in hepatic membrane homogenates; experiment: blocking of WC-21 photoaffinity labeling of the ~24 kD protein band; format: binding; settings: rat liver membrane homogenates, photo cross-linked with WC-21, western blot

Row | Structure (SMILES) | upregulation of PGRMC1 [1] | blocking of WC-21 labeling of the ~24 kD protein band [2]
1 | Cc1ccc2c(c1)[C@H]1CN(C)CC[C@H]1N2C(=O)CSc1nnnn1-c1ccc(Cl)cc1 [AG-205] | induced an upregulation | –
2 | Cc1ccccc1N=C(N)Nc1ccccc1C [DTG] | – | blocked
3 | COc1cc2c(cc1OC)CN(CCCCNC(=O)c1cc(C)ccc1OC)CC2 [RHM-1, N-[4-(3,4-dihydro-6,7-dimethoxyisoquinolin-2(1H)-yl)butyl]-2-methoxy-5-methylbenzamide] | – | blocked
